Test results as given in patent US4056634A, “Dimercaptoethyl ether sulfonium compounds and use as antiinflammatory and antirheumatic agents” (Whitefin Holding S.A., priority 1975, dated 1977).

Key:
in vivo = settings: rat
[1] = test system: Freund's adjuvant arthritis; assay: Freund's adjuvant arthritis test in rats (Perper's design); settings: 0.04 LD50, N = 10; for Δ Volume (ml) (not injected paw; opposite site), x- ± s.e.: arthritic controls 1.68 ± 0.14; for ΔVolume (ml) (injected paw), x- ± s.e.: arthritic controls 3.21 ± 0.27
Granuloma pouch = assay: "Granuloma pouch" test (Selye), antiinflammatory activity in the rat; settings: 0.06 LD50, N = 10; for Exudate volume (ml), x- ± s.e.: controls 13.2 ± 2.19
[2] = 80 mg/Kg/os daily, n.s. = not significant

For `C[S+](C)CCOCC[S+](C)C` [Z.964, 2,2'-bis(dimethylsulfoniumethyl)ether diiodide], which LD50 (in vivo; ip) is on record?
The LD50 was 1150 mg/kg.

What about the LD50 (in vivo; po) of the same compound?
The LD50 was greater than 5000 mg/kg.

And the “Δ Volume (not injected paw; opposite site), % inhib.” value ([1]; 200 mg/Kg/os daily)?
Its value is 63%.

What about the “ΔVolume (injected paw), % inhib.” value ([1]; 200 mg/Kg/os daily) of the same compound?
The value was 32%.

What about the “Δ Volume (ml) (not injected paw; opposite site), x- ± s.e.” value ([1]; 200 mg/Kg/os daily) of the same compound?
The value was 0.61 ± 0.13 mL.

And the “ΔVolume (ml) (injected paw), x- ± s.e.” value ([1]; 200 mg/Kg/os daily)?
The value was 2.17 ± 0.24 mL.

What about the “Pouch wall Fresh weight, % inhib.” value (Granuloma pouch; 300 mg/Kg/os daily) of the same compound?
Its value is 48%.

What about the “Exudate volume, % inhib.” value (Granuloma pouch; 300 mg/Kg/os daily, * P<0.05) of the same compound?
The value was 53%.

And the “Pouch wall Fresh weight, % inhib.” value (Granuloma pouch; 300 mg/Kg/os daily, * P<0.05)?
The value was 38%.

And the “Pouch wall Fresh weight (g), x- ± s.e.” value (Granuloma pouch; 300 mg/Kg/os daily, controls 5.10 ± 0.53)?
Its value is 2.70 ± 0.27 g.

And the “Exudate volume (ml), x- ± s.e.” value (Granuloma pouch; 300 mg/Kg/os daily)?
The value was 6.15 ± 0.69 mL.

What about the “Pouch wall Fresh weight (g), x- ± s.e.” value (Granuloma pouch; 300 mg/Kg/os daily, controls 1126.7, s.e. 156.7) of the same compound?
The value was 708.9 ± 79.0.

For `CC(=O)Oc1ccccc1C(=O)O` [Acetylsalicylic acid], which LD50 (in vivo; ip) is on record?
The LD50 was 500 mg/kg.

And the LD50 (in vivo; po)?
The LD50 was 1500 mg/kg.

Which results are given for `CCCCC1C(=O)N(c2ccccc2)N(c2ccccc2)C1=O` [Phenylbutazone]?
Δ Volume (not injected paw; opposite site), % inhib. ([1]; 50 mg/Kg/os daily): 0%; ΔVolume (injected paw), % inhib. ([1]; 50 mg/Kg/os daily): 8%; Δ Volume (ml) (not injected paw; opposite site), x- ± s.e. ([1]; 50 mg/Kg/os daily): 1.74 ± 0.13 mL; ΔVolume (ml) (injected paw), x- ± s.e. ([1]; 50 mg/Kg/os daily): 2.97 ± 0.14 mL; Pouch wall Fresh weight, % inhib. (Granuloma pouch; 80 mg/Kg/os daily): 27%; Pouch wall Fresh weight (g), x- ± s.e. (Granuloma pouch; 80 mg/Kg/os daily, controls 5.10 ± 0.53): 3.72 ± 0.28 g; Exudate volume (ml), x- ± s.e. (Granuloma pouch; 80 mg/Kg/os daily): 9.70 ± 1.65 mL; Exudate volume, % inhib. (Granuloma pouch; [2]): 28%; Pouch wall Fresh weight, % inhib. (Granuloma pouch; [2]): 20%
